Experimental data published in paper PMC6337497 (International Journal of Molecular Sciences, 2018).
pIC50: −log10 of the molar value.

Experiments:
HCT116 cells = assay: MTT cell viability assay, HCT116; assay type: cell-based, Human; conditions: HCT116, 48 h
Method: Human prostate cancer PC3 cells (CRL 1435, ATCC, Manassas, VA, USA) were grown in Ham’s F12 nutrient medium, human prostate cancer DU145 cells (HTB-81, ATCC, Manassas, VA, USA) in RPMI 1640 medium and human colorectal carcinoma HCT116 cells (CCL-247, ATCC, Manassas, VA, USA) in IMDM medium. All media (Biowest, Nuaillé, France) were supplemented with 10% Foetal Bovine Serum (Gibco-Thermo Fisher Scientific, Waltham, MA, USA), L-glutamine, penicillin, and streptomycin (Euroclone, Milan, Italy), and grown at 37 °C in a humidified 5% CO2 atmosphere. The inhibition of cell proliferation was measured by colorimetric MTT assay [51] and the concentration at which cellular growth is inhibited by 50% (GI50) was determined. Briefly, cells were seeded into 96-well plates at a density of 2000 cells/well. The following day, cells were treated with the indicated compounds and analyzed for cell viability after 48 h. 5 mg/mL thiazolyl blue tetrazolium bromide (Sigma-Aldrich, St. Louis, MO, USA) was added to each well at a final concentration of 0.5 mg/mL and the plates were incubated at 37 °C for 2 h. Medium containing unconverted MTT was removed and 100 µL MTT solvent (4 mM HCl, 0.1% NP-40 in isopropyl alcohol) was added to each well. The plate was gently rotated on an orbital shaker in the dark for 15 min, before the measurements of absorbance at 570 nm. […]

DU145 cells [1] = assay: K3F21/docetaxel co-administration, MTT and CompuSyn, DU145; assay type: cell-based, Human; conditions: 48 h
Method: (§1) The inhibition of cell proliferation was measured by colorimetric MTT assay and the concentration at which cellular growth is inhibited by 50% (GI50) was determined. Briefly, cells were seeded into 96-well plates at a density of 2000 cells/well. The following day, cells were treated with the indicated compounds and analyzed for cell viability after 48 h. 5 mg/mL thiazolyl blue tetrazolium bromide (Sigma-Aldrich, St. Louis, MO, USA) was added to each well at a final concentration of 0.5 mg/mL and the plates were incubated at 37 °C for 2 h. Medium containing unconverted MTT was removed and 100 µL MTT solvent (4 mM HCl, 0.1% NP-40 in isopropyl alcohol) was added to each well. The plate was gently rotated on an orbital shaker in the dark for 15 min, before the measurements of absorbance at 570 nm. The viability of untreated cells was arbitrarily set at 100%.
The ability of K3F21 and docetaxel to act synergistically with regard to growth inhibition was determined using CompuSyn software (ComboSyn, Inc., freely available at http://www.combosyn.com). Combination index (CI) and drug reduction index (DRI) were calculated for each concentration of drugs mixture, as indicated in the text. CI <1, =1 or >1 indicates synergism, additive effect, or antagonism, respectively. DRI >1 or <1 indicates favorable or not favorable dose-reduction.

[2] = Antioxidant activity (DPPH assay); conditions: [DPPH] = 60 µM, methanol, 120 min; read-out: IC50, DPPH radical scavenging
Method: The antioxidant activity of the compounds was evaluated in terms of hydrogen donating or radical scavenging ability, using the stable DPPH radical (1,1-diphenyl-2-picrylhydrazyl radical). A variable amount (15, 30, 45, 75, 105, and 150 µL) of a methanol solution (1.2 mM) of each compound was placed in a cuvette, and 3 mL of a 60 µM methanol solution of DPPH was added. Absorbance measurements were initiated immediately. The decrease in absorbance at 517 nm was monitored every minute up to 5′, then every 5′ up to 30′ and every 30′ until reaction reaches completion and absorbance stabilizes attaining a plateau after 120′. Methanol was used to zero the spectrophotometer. The absorbance of the DPPH radical without K3F compound, i.e., the control, was measured daily, and concentration was calculated applying Equation (2) (2) [DPPH^·]=A−1.006/10970
The percentage of inhibition (%In) of the DPPH radical by each sample was calculated according to the formula (3) %In=A0−At/A0×100 where A0 represents the absorbance of the control (DPPH radical) at time 0, while At refers to the absorbance of the mixture DPPH/antioxidant at time t (120 min). Values of absorbance were corrected taking into account volume dilution and all determinations were performed in triplicate.

PC3 cells [3] = assay: Cell cycle analysis (propidium iodide), PC3; assay type: cell-based, Human; conditions: PC3, 48 h at GI50 dose
Method: (§2) Cells were harvested after 48 h drug treatments and DNA distribution analysis of cells stained with propidium iodide solution (propidium iodide 25 µg/mL, Na-Citrate 3.4 mM, NaCl 9.65 mM, NP-40 0.03%) was performed by an Epics cytofluorimeter (Beckman Coulter Srl, Milan, Italy).

DU145 cells [4] = assay: RT-qPCR gene transcription, DU145; assay type: cell-based, Human; conditions: DU145, 48 h at GI50 dose
Method: (§3) Data are presented as relative transcript levels, normalized with RPL21 housekeeping gene, with DMSO levels arbitrarily set at 1.
(§4) RNA was extracted from cells using RNeasy kit (Qiagen, Venlo, The Netherlands) and reversed transcribed with a Moloney murine leukemia virus reverse transcriptase (Promega, Madison, WI, USA). Quantitative real-time PCRs were performed using SsoAdvanced Universal SYBR Green Supermix (Bio-Rad, Hercules, CA, USA) on a Bio-Rad CFX Connect™ real-time PCR detection system. Primer sequences are available upon request. The housekeeping gene Rpl21 was used as a loading control. The relative fold change enrichments of real-time PCR samples were calculated with the formula 2^−(ΔΔCt), where −(ΔΔCt) = −[(Ct target − Ct Rpl21)treated − (Ct target − Ct Rpl21)DMSO].

DU145 cells [5] = assay: MTT cell viability assay, DU145; assay type: cell-based, Human; conditions: Homo sapiens, DU-145; 48 h treatment, MTT
Method: (§5) Human prostate cancer PC3 cells (CRL 1435, ATCC, Manassas, VA, USA) were grown in Ham’s F12 nutrient medium, human prostate cancer DU145 cells (HTB-81, ATCC, Manassas, VA, USA) in RPMI 1640 medium and human colorectal carcinoma HCT116 cells (CCL-247, ATCC, Manassas, VA, USA) in IMDM medium. All media (Biowest, Nuaillé, France) were supplemented with 10% Foetal Bovine Serum (Gibco-Thermo Fisher Scientific, Waltham, MA, USA), L-glutamine, penicillin, and streptomycin (Euroclone, Milan, Italy), and grown at 37 °C in a humidified 5% CO2 atmosphere.
(§6) DMSO was used as control.
as §1

DU145 cells [6] = assay: Cell migration (wound) assay, DU145; assay type: cell-based, Human; conditions: DU145, GI50 dose, 16 h
Method: 4 × 10^5 prostate cancer cells were plated in a 12-well plate. Approximately 24 h later, when the cells were 100% confluent, the monolayer was scratched using a 200 µL pipette tip. […] Three biological replicates were performed. Three random pictures were taken for each treated well per experiment and the areas of the wounds measured using ImageJ software. The percentage of wound recovery was then calculated using the formula: (final area-initial area)/initial area × 100%.

DU145 cells [7] = assay: Western blot of total cellular lysates, DU145; assay type: cell-based, Human; conditions: DU145, 48 h at GI50 dose
Method: (§7) Actin was used as loading control. Whole-cell protein extracts were prepared by resuspending cells into 1X SDS sample buffer (25 mM Tris-HCl pH 6.8, 1.5 mM EDTA, 20% glycerol, 2% SDS, 5% β-mercaptoethanol, 0.0025% Bromophenol blue). Equivalent amounts of cellular extracts were resolved by SDS-PAGE, electrotransferred to PVDF membrane (GE Healthcare Italia, Milan, Italy) and immunoblotted with the following primary antibodies: anti-phospo-H2AX (sc-101696), anti-p53 (DO1) (sc-126), anti-actin ([MUT]) (sc-1616) and anti-PARP (sc-8007) antibody from Santa Cruz Biotecnology, Inc, Dallas, TX, USA.; phospho-specific AKT antibody S473 (#9018) and T308 (#9275), Akt antibody (#9272 and #2967), phospho-specific ERK1/2 antibody T202/Y204 (#4370), ERK1/2 antibody (#4669), phospho-specific p38 MAPK antibody T180/Y182 (#9211), and p38 antibody (#9212) were purchased from Cell Signaling Technologies, Danvers, MA, USA. Membranes were blotted and scanned with Bio-Rad ChemiDocTM Touch Imaging System (Bio-Rad, Hercules, CA, USA), using chemiluminescent detection reagents from Cyanagen, Bologna, Italy (Westar ηC and Supernova HRP substrates for Western blotting).

PC3 cells [8] = assay: Western blot of total cellular lysates, PC3; assay type: cell-based, Human; conditions: PC3, 48 h at GI50 dose
Method: as §7

PC3 cells [9] = assay: MTT cell viability assay, PC3; assay type: cell-based, Human; conditions: Homo sapiens, PC-3, 48 h, 48 h treatment, MTT
Method: as §5, §6, §1

DU145 cells [10] = assay: Cell cycle analysis (propidium iodide), DU145; assay type: cell-based, Human; conditions: DU145, 48 h at GI50 dose
Method: as §2

PC3 cells [11] = assay: RT-qPCR gene transcription, PC3; assay type: cell-based, Human; conditions: PC3, 48 h at GI50 dose
Method: as §3, §4

[12] = compared to curcumin and control cells

## COc1cc(/C=C/C(=O)C(CCCN2C(=O)c3ccccc3C2=O)C(=O)/C=C/c2ccc(O)c(OC)c2)ccc1O [K3F21]
HCT116 cells
  anti-proliferative activity compared to the other derivatives: most active molecule
DU145 cells [1]; DU145, K3F21 and DTX 20nM
  cell viability of co-administration compared to independent treatments: significant decrease in cell viability
DU145 cells [1]; DU145, K3F21 co-administered with DTX 20nM
  Combination Index (CI): 0.8
[2]
  pIC50: 4.62
PC3 cells [3]
  effect on cell cycle distribution (in words): doubled the percentage of G2/M cells
DU145 cells [4]
  EGFR expression: reduced
  Noxa transcription: induced
  Puma transcription: increased exclusively following K3F21 administration
  transcription of CDK inhibitors p21 and p27: raised only after K3F21 treatment
DU145 cells [4]; [12]
  transcription of Cdc2, CyclinB1, CyclinB2, and CyclinD1 cell cycle genes: general decrease, though not always significant
DU145 cells [5]
  GI50: 8.6 µM
DU145 cells [6]
  cell migration (wound recovery): exerted inhibitory effects on the migratory capacity
DU145 cells [7]
  ERK1/2 phosphorylation: increased
  PARP-1 cleavage (apoptotic cell death): activation of apoptotic cell death
  phospho-p38 expression: no changes were observed
  γH2AX expression (marker of DNA damage): triggered DNA damage
PC3 cells [8]
  ERK1/2 phosphorylation: increased
  phospho-p38 expression: inhibited
  phosphorylation of AKT in Ser473 and Thr308: inhibited
  γH2AX expression (marker of DNA damage): triggered DNA damage
PC3 cells [9]
  GI50: 7.9 µM
DU145 cells [10]
  effect on cell cycle distribution (in words): both arrested the G2/M progression and induced cell death
PC3 cells [11]
  Bcl-2 / Bcl-xl transcription: Bcl-2, but not Bcl-xl, was weakly repressed
  Noxa transcription: induced
  Puma transcription: increased exclusively following K3F21 administration
  transcription of CDK inhibitors p21 and p27: increased
PC3 cells [11]; [12]
  transcription of Cdc2, CyclinB1, CyclinB2, and CyclinD1 cell cycle genes: general decrease, though not always significant
